Converted amounts (≈) assume the structure as drawn.

In the series the test system is Spodoptera littoralis (Boisd.) 2nd and 4th instar larvae. The series can be described thus: Insecticidal bioassay screening (castor leaf dip, larval mortality). It is filed as in vivo. Particulars: for Toxic ratio: fenoxycarb's LC50 / compound's LC50 × 100. The protocol: Five concentrations (200, 100, 50, 25, 12.5 ppm) were designed for this synthetic compound and the reference fenoxycarb compound as the dynamic ingredients based on ppm via diluting the commercial formulation.
In this experiment, castor leaves are immersed in each of the previously prepared concentrations of the components for 10 seconds and then left to dry for 60 minutes. Larvae of the second and fourth instars of each checked strain are prepared with treated leaves in gauze-covered glass containers for 72 hrs. An untreated control is made in which leaves are dipped in triton x-100 and distilled water only. Then the preserved leaves were removed & fresh, untreated leaves were provided for 72 hours. Three replicates (10 larvae each) were checked for each concentration. Daily inspection was carried out for all treatments and mortality percentages were recorded 3 days (72 hours) after treatment. The average mortality percentage was corrected employing Abbott's formula. The corrected mortality rate for each of the previously synthesized compounds is statistically calculated according to Finney (1970). Through this rate, the corresponding concentration test lines (LDP lines) are assessed. Fifty and ninety percent mortality are determined, and the regression values for the checked products were previously evaluated.

Where [1] appears, read: Spodoptera littoralis, foliar, 72 h, 2nd instar larvae of S. littoralis, after 72 h of treatment.
Where [2] appears, read: Spodoptera littoralis, foliar, 72 h, 4th instar larvae of S. littoralis, after 72 h of treatment.
Where [3] appears, read: Spodoptera littoralis, foliar, against Spodoptera littoralis under laboratory conditions (instar not given).

For `O=C(O)c1cn(C2CC2)c2cc(N3CCN(CC(O)COc4ccc5ccccc5c4)CC3)c(F)cc2c1=O` (stereo not shown) [listing 1 of 2 here], the LC50 (usually the concentration that kills 50% of the test population) (in vivo) was “about 103.01 ppm”.
Take `O=C(O)c1cn(C2CC2)c2cc(N3CCN(CC(O)COc4ccc5ccccc5c4)CC3)c(F)cc2c1=O` (stereo not shown) [listing 2 of 2 here]: under “in vivo”, the LC50 result is recorded as “about 44.08 ppm”.
Take `O=C(O)c1cn(C2CC2)c2cc(N3CCN(CC(O)COc4ccc5ccccc5c4)CC3)c(F)cc2c1=O` (stereo not shown) [Compound 7]: the Toxic ratio reads like this: (2nd instar larvae, 72 h) 6.1; (4th instar larvae, 72 h) 41.9. For the same compound, the median lethal concentration (LC50) under setting [1] was determined as 44.1 µg/mL (≈ 82.9 µM), the LC50 under setting [2] turned out to be 103 µg/mL (≈ 194 µM) and the LC50 under setting [3] is 44.1 µg/mL (≈ 82.9 µM). The “activity against Spodoptera littoralis (in words)” value (compared with reference insecticide fenoxycarb) is on record as “active against Spodoptera littoralis”.
On to `CCOC(=O)NCCOc1ccc(Oc2ccccc2)cc1` [Fenoxycarb, reference compound], for which the Toxic ratio is reported as 100 (2nd instar larvae, 72 h) and 1 (4th instar larvae, 72 h). Further, the LC50 by setting is: under setting [1], 2.73 µg/mL (≈ 9.06 µM); under setting [2], 43.2 µg/mL (≈ 143 µM); under setting [3], 2.73 µg/mL (≈ 9.06 µM).
